The source of these data is patent US20250381204A1, “A CANNABINOID MIXTURE WITH TERPENES FOR THE TREATMENT OF ANXIETY” (priority 2022, published 2025).

Molecules are shown by their SMILES. Where two headings read alike, the source gives them in different places. Some results are limits rather than exact numbers.

For assay [1], the system named is Fish. The assay can be described thus: Tank diving experiments (Example 8). It is filed as in vivo. The procedure:
Fish were exposed to drug, either pure CBD, CBD containing terpenes, or CBD plus CBG, in a litre of water for 30 min prior to being transferred to a novel tank containing fresh fish water in the absence of drug using a net and their behaviour recorded over a 6 min period using a camera mounted to one side. The vertical position of the fish in the tank can reliably be used as a proxy for an individual's anxiety. For example, the less time a fish spends on the bottom of the tank the less anxious. The response variables were number of visits to the top half of the tank, distance from the bottom of the tank, and proportion of time spent in the bottom third of the tank. Time spent on the bottom, distance travelled and number of top half visits determining using Ethovision software (Noldus). Water was changed, tanks and fish nets cleaned between each fish.
The anxiolytic concentration of CBD was first assessed by treating the fish with 0-15 mg/L CBD.
The ratio of CBD minus terpenes:CBD plus terpenes tested was 2:0, 1.5:0.5, 1:1, 0.5:1.5 and 0:2.

Assay [2] has as its system 5 dpf zebrafish larvae. It is filed as in vivo, Zebrafish (Danio rerio). The procedure:
Fish were bred and reared in the aquarium facility at Queen Mary University of London, licenced by the UK Home Office. Zebrafish (Danio rerio) adults from the Tuebingen wild type (TUWT) line were kept in glass breeding tanks in fish water that contain sodium bicarbonate (0.9 mM), calcium sulphate (0.05 mM) and marine salts (Sigma, Poole, UK; 0.018 g/l). Fish were maintained on a constant 14 h light: 10 h dark cycle at 28° C. They were fed 2 times a day with Zmsystems® ZM-000 high protein food particle (Tecniplast® UK. London) from 5 dpf-10 dpf, ZM-100 and paramecium from 11 dpf-14 dpf, and, ZM-200 and brineshrimp from 14 dpf-30 dpf. At one month of age, animals were transferred into the aquaria where they were fed Zmsystems® flake food and brineshrimp.
After incubation the 48-well plate was placed in a DanioVision Observation Chamber (Noldus) and the larvae were subjected to a forced dark/light transition assay while still in the compound solution. The assay consisted of a 10 min baseline period in the dark, followed by a 10 min light challenge, followed by a 15 min dark period. DanioVision Observation Chamber controlled the lighting and recorded the assay with an infrared camera (resolution, 30 frames per second (fps)). Footage obtained was processed by EthoVision XT NUMBER (Noldus). Mean distance moved was measured with 10 second intervals.
All statistical analyses were carried out in R version 3.2.2 (R core developer team reference). Data distributions and model fit were initially assessed visually. AIC values were used in model selection. Due to difference in variance between groups we fitted a linear mixed model (LMM) in the gls package (ref).
It was first assessed whether the different compounds and concentrations were associated with differences in locomotion after 30 min exposure. We subsetted the last min in the baseline and fitted an LME with mean distance moved as the response variable, compound as the fixed effect, and individual as the random effect, with a variance structure for compound.
The light challenge and dark phase were subsetted to assess if different compounds and concentrations were associated with different patterns of movement. In the light challenge the increase of movement over time was considered recovery. In the dark phase decrease of movement was considered recovery. We fitted an LME with mean distance moved (in 10 second time bins) as the response variable, the interaction between time and concentration as a fixed effect, individual as the random effect and introduced a variant structure to account for the heterogeneity in variance between drugs.

Assay [3] deals with larvae. As to the kind of experiment: Forced light/dark transition assay screening hemp extracts, diazepam and caffeine (Example 5). It is filed as in vivo, zebrafish. To be noted: for response when the light is switched on (from trace): whole duration of the assay. The procedure: Our forced light/dark transition protocol was as follows. First, there was 10 minutes of total darkness (which we refer to as the baseline period; compounds were introduced at the beginning of the baseline period, and 10 minutes were allotted to allow for drug absorption and acclimation). Next, there was a period of five minutes of light exposure followed by five minutes of dark exposure, repeated three times. Finally, there was an additional five minutes of dark exposure.
A variety of statistical techniques were used to address our hypotheses about the potential anxiolytic and anxiogenic effects of four compounds. In outline: • 1) Overall models were carried out using linear mixed-effect models • 2) Deliberate pairwise comparisons between controls and dosages of interest were carried out using appropriate two-sample comparison tests
All statistical analyses were carried out in R version 3.2.2 (R core developer team). Overall models were linear mixed-effects models (LMMs), and were fitted using the Ime4 package (Bates, Machler, Bolker, & Walker, 2015). Data were transformed as indicated to fit the assumptions of LMMs. Posthoc tests were performed using the multcomp package in R. Data distributions were initially assessed visually and model diagnostics were subsequently checked to assure appropriate fits.
Comparisons between patterns of activity during the light phases (i.e. rate of recovery during light phases, which indicates a possible anxiolytic or anxiogenic effect) were performed by analysing the slope of the linear regression function of individual mean distance vs time during light phases.
For pairwise comparisons on specific concentrations, nonparametric tests are used as indicated on non-normally distributed data.

Assay [4] has as its system 5 dpf larvae. The assay can be described thus: Forced light/dark transition test, 10 min dark-(5 min light-5 min dark)*3-5 min dark (Example 4). It is filed as in vivo, zebrafish. The procedure:
• All the tests were done with 5 dpf larvae unless stated otherwise. • A forced light/dark transition test was used. (10 min dark-(5 min light-5 min dark)*3-5 min dark) • The dose response curve was made as follows; • The locomotor activity of the larvae at the last min of acclimation (min 9-10 in the assay), was taken • The mean for each larvae over this period of time was calculated • Then the mean of each condition was calculated • The means plotted are relative to the control, control was set at 1

Where [5] appears, read: 2 mg/L CBD in combination with 0-5 mg/L CBG.
[6] abbreviates: 1% ethanol, 80 mg/L caffeine, 250 μg/L fluoxetine, 100 mM NaCl.

With `C=C(C)[C@@H]1CCC(C)=C[C@H]1c1c(O)cc(CCCCC)cc1O` [CBD, Cannabidiol], the “anxiolytic effect in tank diving (top half visits, distance from bottom, time in bottom third)” value in assay [1] (0-15 mg/L CBD, 30 min exposure, 6 min recording) is listed as “anxiolytic effect”.

Regarding `CCCCCc1cc(O)c(C/C=C(\C)CCC=C(C)C)c(O)c1` [CBG, Cannabigerol], in assay [1] (setting [5]), the “anxiolytic / anxiogenic effect of CBG in the mixture” value is reported as “displays no anxiolytic effect, but may potentially have an undesirable anxiogenic effect”; the “distance from the bottom of the tank” value is recorded as “no significant change in the distance from the bottom of the tank with increasing CBG concentration”; the “frequency of visits to the top half of the tank” value was “decreased with increasing concentration of CBG”; the “proportion of time spent in the bottom third of the tank” value is recorded as “spend a greater proportion of time in the bottom third of the tank”.

Consider `CNCCC(Oc1ccc(C(F)(F)F)cc1)c1ccccc1` (centres unmarked) [Fluoxetine, fluoxetine], for which, in assay [2] (setting [6]), the “basal locomotion (last minute of baseline) vs DMSO” value (“basal locomotion … vs DMSO” below) was “move significantly less than DMSO”, the “movement in the beginning of the dark period / in the dark phase vs DMSO” value is “move less overall in the dark phase”, the “rate of recovery in the dark phase (decrease of movement over time) vs DMSO” value (“rate … (decrease of movement over time) vs DMSO” for short) is recorded as “recover less over time” and the “rate of recovery in the light challenge (increase of movement over time) vs DMSO” value (shortened to “rate … (increase of movement over time) vs DMSO”) is “recover less over time”.

For `[Cl-].[Na+]` [NaCl], in assay [2] (zebrafish, in vivo), the “basal locomotion … vs DMSO” value was “no difference in locomotion”, the “freezing in the light challenge vs DMSO” value is on record as “froze less”, the “movement in the beginning of the dark period / in the dark phase vs DMSO” value is recorded as “no difference in movement in the beginning of the dark period” and the “rate … (decrease of movement over time) vs DMSO” value is listed as “recovers slower than DMSO”. In addition, the “rate … (increase of movement over time) vs DMSO” value in assay [2] (zebrafish, in vivo) is on record as “did not recover differently from DMSO”.

Regarding `Cn1c(=O)c2c(ncn2C)n(C)c1=O` [caffeine], in assay [2] (setting [6]), the “basal locomotion … vs DMSO” value is “move significantly less than DMSO”, the “freezing in the light challenge vs DMSO” value is “froze less in the beginning of the light challenge”, the “movement in the beginning of the dark period / in the dark phase vs DMSO” value is reported as “move less overall in the dark phase” and the “rate … (decrease of movement over time) vs DMSO” value is recorded as “recover less over time”. Further, the “rate … (increase of movement over time) vs DMSO” value in assay [2] (setting [6]) is recorded as “negative impact of locomotion over time”. Further, the “dosage with significantly lower locomotion than control larvae (Tukey posthoc)” value in assay [3] (after ~10 minutes of exposure) stood at 80 mg/L. Moreover, the “dosage as predictor of mean distance moved after ~10 minutes of exposure (LMM)” value in assay [3] (last minute of baseline, dark) is given as “Dosage was a significant predictor of mean distance moved after 10 minutes of exposure”. Also, in assay [3] (light phases), the “dosages significantly different from the control during light phases (Tukey posthoc pairwise comparison)” value is recorded as ≥ 40 mg/L; the “time×dosage and dosage×light phase number as predictors of mean distance moved during light phases (LMM)” value is on record as “Both fixed effects were significant predictors of mean distance moved”. Also, the “response when the light is switched on (from trace)” value in assay [3] was “much the same for all doses”.

Take `CN1C(=O)CN=C(c2ccccc2)c2cc(Cl)ccc21` [diazepam]: the effect on locomotor result in assay [4] (5 dpf larvae, dose response) was “impairment diazepam has on locomotor”. Moreover, in assay [3] (0.25 μM), the “rate of recovery (slope) during light phases vs DMSO control” value was “significantly higher slope, or rate of recovery”. Moreover, the “rate of recovery (slope of linear regression) during the first light phase (Kruskal-Wallis)” value in assay [3] (Experiment 1 (diazepam), all dosages) is on record as “faster rate of recovery”. The “mean distance moved over time in the light challenge vs control” value in assay [3] (Experiment 2 (diazepam), 2.5 μM, minute 10 to 20) is “increases movement over time faster than the control in the light challenge”. For the same compound, the “mean distance moved over time in the dark period vs control” value in assay [3] (Experiment 2 (diazepam), 2.5 μM, minute 20 to 30) is “decreases movement over time faster than the control in the dark period”. Moreover, the “mean distance moved in the baseline period (LMM)” value in assay [3] (Experiment 2 (diazepam), minute 9 to 10) is reported as “no significant difference found in mean distance moved in the baseline period”. Further, in assay [3] (after ~10 minutes of exposure, Experiment 1 (diazepam)), the “dosages with significantly lower distance moved than the control fish (Tukey post hoc)” value is ≥ 0.25 µM. For the same compound, the “time×dosage and dosage×light phase number as predictors of mean distance moved during light phases (LMM)” value in assay [3] (light phases) is listed as “Both fixed effects were significant predictors of mean distance moved”. Besides, in assay [3], the “response when the light is switched on (from trace)” value is given as “stops the fish moving to the bottom of the tank”. For the same compound, the “anxiolytic effect (overall conclusion)” value in assay [3] (zebrafish, in vivo) is on record as “anxiolytic effect”.

On to `CCO` [ethanol], for which, in assay [4] (0.25% ethanol), the “behaviour in the acclimation period” value is “start moving erratically”. The “behaviour when turning on the light” value in assay [4] (0.5% ethanol, most groups freeze) was “starts moving more than before”. For the same compound, in assay [2] (setting [6]), the “rate … (decrease of movement over time) vs DMSO” value was “recovers faster” and the “rate … (increase of movement over time) vs DMSO” value is listed as “negative impact of locomotion over time”. Besides, in assay [2] (zebrafish, in vivo), the “basal locomotion … vs DMSO” value is given as “moved significantly more than DMSO”, the “freezing in the light challenge vs DMSO” value is listed as “froze less in the beginning of the light challenge” and the “movement in the beginning of the dark period / in the dark phase vs DMSO” value is “moves more at the beginning of the dark period compared to DMSO”.
